Assay results from ChEMBL document CHEMBL1141784, “Phaeochromycins A-E, anti-inflammatory polyketides isolated from the soil actinomycete Streptomyces phaeochromogenes LL-P018” (J Nat Prod, 2005).

Biological target: MAP kinase-activated protein kinase 2 (Homo sapiens, UniProt P49137)
Assay: Inhibition of human recombinant MK2 by ELISA

MAP kinase-activated protein kinase 2, sequence (P49137 whole entry): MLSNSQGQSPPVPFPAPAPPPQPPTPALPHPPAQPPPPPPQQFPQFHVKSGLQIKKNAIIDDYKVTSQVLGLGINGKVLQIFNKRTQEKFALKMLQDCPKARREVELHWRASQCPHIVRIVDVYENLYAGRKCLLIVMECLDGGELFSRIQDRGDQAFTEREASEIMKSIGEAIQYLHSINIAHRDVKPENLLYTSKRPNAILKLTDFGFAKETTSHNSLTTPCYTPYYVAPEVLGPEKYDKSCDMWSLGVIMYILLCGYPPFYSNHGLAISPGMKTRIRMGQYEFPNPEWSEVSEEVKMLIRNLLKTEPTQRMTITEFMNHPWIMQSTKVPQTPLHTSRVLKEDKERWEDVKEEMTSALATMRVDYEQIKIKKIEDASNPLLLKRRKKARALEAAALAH

Row | SMILES | IC50
1 | CCCc1cc(O)c2c(O)cccc2c1-c1cc(O)cc(=O)o1 [PHAEOCHROMYCINS A] | 39 µM
2 | CCCc1cc(=O)c2c(Cc3cc(O)cc(=O)o3)cccc2o1 [PHAEOCHROMYCIN C] | 130 µM
